The values that follow come from ChEMBL document CHEMBL1201862, “PubChem BioAssay data set” (2004).

Holding throughout (assay): DTP human tumour cell line panel, 48 h
Experiment [1] has as its system SNB-19.
Experiment [2] relates to KM12.
Experiment [3] relates to SF-268.
Experiment [4] deals with A498.
Experiment [5] has as its system U-251.
For experiment [6], the system named is MOLT-4.
Experiment [7] has as its system IGROV-1.
The test system of experiment [8] is OVCAR-5.
For experiment [9], the system named is SN12C.
For experiment [10], the system named is OVCAR-8.
Experiment [11] concerns SK-MEL-5.
The subject of experiment [12] is SNB-75.
The test system of experiment [13] is NCI-H23.
For experiment [14], the system named is SR.
The subject of experiment [15] is NCI-H226.

Molecules are shown by their SMILES.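 Interpolation was linear, between the two tested concentrations surrounding the appropriate level; five concentrations were tested over 48 hours in 96-well plates. GI50: concentration for 50% inhibition of growth.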 Activity calls are given as the source filed them. Cut-off read from the data, not from the text of the source: active = GI50 up to about 1.1 µM and inactive = higher. Where only a bound is given, the exact number is not on record here.

As to `C[C@@H]1[C@H](c2ccccc2)O[B-]2(c3ccc(Br)cc3)OC(=O)C[N+]12C` (stereo not given in full), the GI50 is > 100 µM (inactive) in experiment [1]; > 100 µM (inactive) in experiment [2]; 94.2 µM (inactive) in [3]; > 100 µM (inactive) in experiment [4]; > 100 µM (inactive) in experiment [5]; 86.5 µM (inactive) in experiment [6]. Besides, the GI50 is > 100 µM (inactive) in [7]; > 100 µM (inactive) in experiment [8]; > 100 µM (inactive) in experiment [9]; > 100 µM (inactive) in [10]; > 100 µM (inactive) in experiment [11]; 5.3 µM (inactive) in [12]. Moreover, the GI50 in experiment [13] and in experiment [14] was > 100 µM (inactive) each time.

For the compound `CCOC(=O)C1=C(C)N(NC(N)=O)C2(N)N(NC(N)=O)C(C)=C(C(=O)OCC)C12C(=O)OCC` (stereo not given), the GI50 in experiment [1], in [2], in experiment [3], in experiment [4], in experiment [5] and in experiment [6] was > 100 µM (inactive) in each case. Further, the GI50 in experiment [7], in [8], in experiment [9], in experiment [15], in experiment [10] and in experiment [11] was > 100 µM (inactive) in each case. The GI50 in experiment [12] was 47.8 µM (inactive); in experiment [14] it was > 100 µM (inactive).

Turning to `CC(C)COC(=O)N1N=NC2C3OC(CC3=O)C21` (stereo not given), the GI50 in experiment [1], in experiment [2], in [3], in [4], in experiment [5] and in [6] was > 100 µM (inactive) each time. In addition, the GI50 in experiment [7] was > 31.6 µM (inactive); in experiment [8], > 100 µM (inactive); in experiment [9], > 100 µM (inactive); in [15], > 100 µM (inactive); in [10], > 100 µM (inactive); in experiment [11], > 100 µM (inactive). The GI50 in [12], in experiment [13] and in [14] was > 100 µM (inactive) each time.

As to `O=C(NC12CC3CC(CC(C3)C1)C2)C(=O)c1c[nH]c2ccc([N+](=O)[O-])cc12`, the GI50 in [1] was > 20.1 µM (inactive); in experiment [2], 33.7 µM (inactive); in experiment [3] it was 9.48 µM (inactive); in experiment [4] it was 37.8 µM (inactive); in experiment [5], 10.9 µM (inactive); in [6], > 100 µM (inactive). Besides, the GI50 in experiment [7] is > 94.2 µM (inactive); in experiment [8], > 87.5 µM (inactive); in [9], 31 µM (inactive); in [15], 23.8 µM (inactive); in [10], 19 µM (inactive); in experiment [11], 30.3 µM (inactive). In addition, the GI50 is 14.2 µM (inactive) in experiment [12], 38.7 µM (inactive) in experiment [13] and 14 µM (inactive) in experiment [14].

In the case of `C=C1CC2CC(O)CC(C1)C2` (stereo not given), the GI50 in experiment [1] is > 100 µM (inactive); in experiment [2], > 100 µM (inactive); in experiment [3], > 100 µM (inactive); in experiment [4], > 100 µM (inactive); in experiment [5], > 100 µM (inactive); in [6], 78.2 µM (inactive). Also, the GI50 in [7], in experiment [8], in experiment [9], in [15], in experiment [10] and in experiment [11] was > 100 µM (inactive) throughout. Moreover, the GI50 was > 100 µM (inactive) in experiment [12], > 100 µM (inactive) in [13] and 93.5 µM (inactive) in experiment [14].

`CCCCC(C(=O)CCC(=O)Nc1ccc(Cl)c(Cl)c1)C(=O)C(C)C` (stereo not given): the GI50 in experiment [1] was > 100 µM (inactive); in experiment [2], 84.7 µM (inactive); in [3] it was > 100 µM (inactive); in experiment [4] it was > 100 µM (inactive); in experiment [5] it was > 100 µM (inactive); in [6] it was > 100 µM (inactive). The GI50 in experiment [7] is > 100 µM (inactive); in experiment [8], 32.3 µM (inactive); in [9], > 100 µM (inactive); in experiment [15] it was > 100 µM (inactive); in experiment [10], > 100 µM (inactive); in experiment [11], > 100 µM (inactive). Moreover, the GI50 was 21.6 µM (inactive) in experiment [12], > 100 µM (inactive) in [13] and > 100 µM (inactive) in [14].

With `COc1ccc(/C=C2\C(=O)N(C(=O)c3ccc(NC(C)=O)cc3)N=C2C)cc1OC`, the GI50 in experiment [1], in experiment [2], in experiment [3], in experiment [6], in experiment [8] and in experiment [9] was > 100 µM (inactive) in each case. The GI50 in experiment [15], in experiment [10], in [11], in [12], in [13] and in [14] was > 100 µM (inactive) throughout.

On to `O=[N+]([O-])c1nccn1COCCBr`, for which the GI50 in [1], in experiment [2], in experiment [3], in experiment [5], in experiment [6] and in experiment [8] was > 100 µM (inactive) throughout. The GI50 in [9], in experiment [15], in experiment [10], in experiment [11], in experiment [12] and in experiment [13] was > 100 µM (inactive) in each case. The GI50 in [14] is > 100 µM (inactive).

As for `COc1cc(-c2cccs2)sc1-c1cccs1`, the GI50 was > 100 µM (inactive) in experiment [1]; 27.7 µM (inactive) in [2]; 53.6 µM (inactive) in experiment [3]; 43.6 µM (inactive) in experiment [5]; 32.6 µM (inactive) in experiment [6]; 25.5 µM (inactive) in experiment [7]. The GI50 in experiment [8] is 22.3 µM (inactive); in experiment [9] it was 81.8 µM (inactive); in [15], 43.5 µM (inactive); in [10], 97.1 µM (inactive); in [11], 29.7 µM (inactive); in experiment [12], 14 µM (inactive). Besides, the GI50 was 15.7 µM (inactive) in experiment [13] and 17.7 µM (inactive) in [14].

`C/C(=N\NC(=O)C[n+]1ccccc1)c1sc(-c2nc(C)c(/C(C)=N/NC(=O)C[n+]3ccccc3)s2)nc1C`: the GI50 was > 100 µM (inactive) in experiment [1]; > 100 µM (inactive) in experiment [2]; > 100 µM (inactive) in [3]; > 100 µM (inactive) in experiment [4]; > 100 µM (inactive) in experiment [5]; 95.9 µM (inactive) in experiment [6]. Besides, the GI50 in [7], in experiment [8], in experiment [9], in experiment [15], in experiment [10] and in [11] was > 100 µM (inactive) throughout. In addition, the GI50 in [12] and in [13] was > 100 µM (inactive) each time.

Consider `Nc1nc(N)c2ncn(CCCC(c3ccccc3)P(=O)(O)O)c2n1` (stereo not given), for which the GI50 in [1], in experiment [2], in experiment [3], in [4], in experiment [5] and in experiment [7] was > 100 µM (inactive) each time. For the same compound, the GI50 was > 100 µM (inactive) in [8]; > 100 µM (inactive) in experiment [9]; > 100 µM (inactive) in experiment [10]; > 100 µM (inactive) in experiment [11]; > 100 µM (inactive) in experiment [12]; 19.2 µM (inactive) in experiment [13]. Also, the GI50 in experiment [14] is > 100 µM (inactive).

Turning to `CC1(CO)OC1COCc1ccccc1` (stereo not given), the GI50 in [1], in [2], in experiment [3], in experiment [5], in experiment [6] and in experiment [7] was > 100 µM (inactive) in each case. Moreover, the GI50 in experiment [8], in experiment [9], in [15], in [10], in experiment [12] and in experiment [13] was > 100 µM (inactive) throughout. Also, the GI50 in experiment [14] is > 100 µM (inactive).

For the compound `CCCCCCCCCCCCCCCC(=O)OCC1OC(n2cc(F)c(=O)[nH]c2=O)C(NC(=O)N(CCCl)N=O)C(O)C1O` (stereo not given), the GI50 is 0.979 µM (active) in [1]; 1.86 µM (inactive) in [2]; 0.0246 µM (active) in experiment [3]; 4.44 µM (inactive) in [4]; 0.0585 µM (active) in [5]; 1.21 µM (inactive) in experiment [6]. Moreover, the GI50 in experiment [7] is 4.43 µM (inactive); in [8], 13.1 µM (inactive); in experiment [9], 2.07 µM (inactive); in experiment [15], 10.4 µM (inactive); in experiment [10] it was 3.86 µM (inactive); in experiment [11], 3.94 µM (inactive). In addition, the results for the GI50 in [12] and in experiment [13] were 0.228 µM (active) and 0.731 µM (active), respectively.

Regarding `CCOC(=O)C1S/C(=N/c2ccc(Cl)cc2C)N=C1C` (stereo not given), the GI50 in experiment [1] is 26.6 µM (inactive); in [2], 15.5 µM (inactive); in experiment [3], 15.7 µM (inactive); in [4], 37.1 µM (inactive); in experiment [5] it was 15.8 µM (inactive); in experiment [6], 9.77 µM (inactive). Besides, the GI50 was 25.1 µM (inactive) in [7]; 18.1 µM (inactive) in experiment [8]; 18.5 µM (inactive) in [9]; 24 µM (inactive) in [15]; 28.1 µM (inactive) in experiment [10]; 16.2 µM (inactive) in [11]. Moreover, the GI50 in experiment [12] is 23.6 µM (inactive); in [13] it was 16.5 µM (inactive).
